From US9556162B2, “Compound for the treatment of hepatitis C” (Bristol-Myers Squibb Company, priority 2013, dated 2017)

How the values were obtained:
[1] = test system: genotype 1b (Con-1) HCV replicon; assay: HCV replicon luciferase assay; assay type: cell-based; details: Hepatitis C virus, Huh-7, 72 h
Experimental: The cell lines used to evaluate compounds consist of a human hepatocyte derived cell line (Huh-7) that constitutively expresses a genotype 1b (Con-1) HCV replicon or a genotype 1b (Con-1) HCV replicon with an asparagine replacing the cysteine at amino acid 316, or a genotype 2a (JFH-1) replicon, containing a Renilla luciferase reporter gene. These cells were maintained in Dulbecco's modified Eagle medium (DMEM) containing 10% FBS, 100 U/mL penicillin/streptomycin and 1.0 mg/mL G418.
To evaluate compound efficacy, titrated compounds were transferred to sterile 384-well tissue culture treated plates, and the plates were seeded with HCV replicon cells (50 μL at a density of 2.4×10^3 cells/well) in DMEM containing 4% FBS (final DMSO concentration at 0.5%). After 3 days incubation at 37 C, cells were analyzed for Renilla Luciferase activity using the EnduRen substrate (Promega cat #E6485) according to the manufacturer's directions. […] The plates were incubated for at least 1 h at 37° C. then read on a Viewlux Imager (PerkinElmer) using a luminescence program. […]
To assess cytotoxicity of compounds, Cell Titer-Blue (Promega) was added to the EnduRen-containing plates and incubated for at least 4 h at 37° C. The fluorescence signal from each well was read using a Viewlux Imager. All CC50 values were calculated using the four-parameter logistic formula.

[2] = biological target: T1, NS5B enzyme, HCV genotype 1b (Con1) (Hepatitis C virus genotype 1b, UniProt Q9WMX2); assay: HCV NS5B RdRp enzyme assay; assay type: biochemical; details: 1b NS5B enzyme, 24 h preincubation, [33P]-GTP incorporation
T1 construct: Each untagged protein was expressed with an 18 amino acid C-terminal truncation to enhance the solubility; made in house; host or cells: E. coli BL21(DE3), pET21a vector
Experimental: The cDNA encoding NS5B proteins of HCV genotype 1b (Con1), a genotype 1b variant with amino acid 316 mutated from cysteine to asparagine, and genotype 2a (JFH-1), were cloned into the pET21a expression vector. Each untagged protein was expressed with an 18 amino acid C-terminal truncation to enhance the solubility. The E. coli competent cell line BL21(DE3) was used for expression of the protein. Cultures were grown at 37° C. for ˜4 hours until the cultures reached an optical density of 2.0 at 600 nm. The cultures were cooled to 20° C. and induced with 1 mM IPTG. Fresh ampicillin was added to a final concentration of 50 μg/mL and the cells were grown overnight at 20° C.
Cell pellets (3 L) were lysed for purification to yield 15-24 mgs of purified NS5B. […]
HCV NS5B RdRp enzyme assay. […] The newly synthesized RNA product was precipitated by 10% TCA and quantified on the Packard Top Count NXT. IC50 values for compounds were determined using seven different [I]. IC50 values were calculated from the inhibition using the four-parameter logistic formula y=A+((B−A)/(1+((C/x)^D))), where A and B denote minimal and maximal % inhibition, respectively, C is the IC50, D is hill slope and x represents compound concentration.

HCV = details: cited from earlier work

T1 sequence (Q9WMX2 2420-2992): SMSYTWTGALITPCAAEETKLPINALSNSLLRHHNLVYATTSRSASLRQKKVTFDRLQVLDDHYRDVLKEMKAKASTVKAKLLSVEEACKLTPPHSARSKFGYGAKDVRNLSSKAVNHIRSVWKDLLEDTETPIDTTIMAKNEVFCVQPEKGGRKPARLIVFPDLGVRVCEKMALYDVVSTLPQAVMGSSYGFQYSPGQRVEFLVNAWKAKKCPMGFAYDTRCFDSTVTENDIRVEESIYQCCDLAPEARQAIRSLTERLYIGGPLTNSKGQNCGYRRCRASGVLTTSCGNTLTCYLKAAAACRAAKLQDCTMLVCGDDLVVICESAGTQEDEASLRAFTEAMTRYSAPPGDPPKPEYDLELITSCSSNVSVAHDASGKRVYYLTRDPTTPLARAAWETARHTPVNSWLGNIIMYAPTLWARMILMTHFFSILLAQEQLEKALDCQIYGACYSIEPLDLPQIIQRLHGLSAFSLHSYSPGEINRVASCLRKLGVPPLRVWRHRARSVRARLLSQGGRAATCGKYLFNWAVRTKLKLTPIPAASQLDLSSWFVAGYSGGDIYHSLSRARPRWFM

Row | Structure (SMILES) | EC50 [1] [nM] | IC50 [2] [nM] | toxicity during extended dosing of the combination regimens (HCV; patients, combined with interferon and ribavirin) | HCV RNA levels in patients (HCV; single agent: transient decrease then rebound during dosing)
1 | CC[C@@H](C)c1cc2oc(-c3ccc(F)cc3)c(C(=O)NC)c2cc1-c1cccc(C(=O)NC(C)(C)c2ncon2)c1 (single isomer, unassigned) [Enantiomer 2] | 5.5 | 2.3 | – | –
2 | CNC(=O)c1c(-c2ccc(F)cc2)oc2cc(N(CCO)S(C)(=O)=O)c(C3CC3)cc12 [HCV-796] | – | – | hepatic toxicity | reduce HCV RNA levels
